One may read the IC50 as the concentration at which inhibition is half-maximal. Usually Tmax stands for the time from dosing to the highest level. Broadly, the bioavailability is the share of a dose that reaches the circulation, judged against a reference dose that is usually intravenous.

Active and inactive are the calls of the source. The calls are words filed in the database; no cut-off is given here. A value given as a limit tells only on which side of the number the result lay.

This note sets out measurements from ChEMBL document CHEMBL4406913, “INCB050465 (Parsaclisib), a Novel Next-Generation Inhibitor of Phosphoinositide 3-Kinase Delta (PI3Kδ)” (ACS Med Chem Lett, 2019).

In series [1] the test system is Pfeiffer. In words: Cytotoxicity against human Pfeiffer cells assessed as reduction in protein binding adjusted cell viability incubated for 4 days by [3H]-thymidine incorporation based liquid scintillation counter method. The format is functional. In general terms: Incorporation of labelled thymidine or its analogues reports DNA synthesis.
For series [2], the target named is Phosphatidylinositol 4,5-bisphosphate 3-kinase catalytic subunit alpha isoform (Homo sapiens, UniProt P42336). In words: Inhibition of PI3Kalpha (unknown origin) using D-myophosphatidylinositol 4,5-bisphosphate as substrate incubated for 120 mins by [gamma-33P]-ATP based scintillation counting method.
In series [3] the target is Phosphatidylinositol 4,5-bisphosphate 3-kinase catalytic subunit beta isoform (Homo sapiens, UniProt P42338). In words: Inhibition of PI3Kbeta (unknown origin) using D-myophosphatidylinositol 4,5-bisphosphate as substrate incubated for 120 mins by [gamma-33P]-ATP based scintillation counting method.
Series [4] addresses Phosphatidylinositol 4,5-bisphosphate 3-kinase catalytic subunit gamma isoform (Homo sapiens, UniProt P48736). In words: Inhibition of PI3Kgamma (unknown origin) using D-myophosphatidylinositol 4,5-bisphosphate as substrate incubated for 120 mins by [gamma-33P]-ATP based scintillation counting method.
A short description of series [5]: Clearance in rat at 4 mg/kg, iv measured for 24 hrs by LC-MS/MS analysis. The format is ADME, organism-based. As to conditions: in vivo.
The nature of series [6]: Tmax in rat at 4 mg/kg, po measured for 24 hrs by LC-MS/MS analysis. The conditions noted are these: in vivo. Format: ADME, organism-based.
A short description of series [7]: Oral bioavailability in rat at 4 mg/kg measured for 24 hrs by LC-MS/MS analysis. The format is ADME, organism-based. As to conditions: in vivo.
Series [8] can be described thus: Clearance in Beagle dog at 2 mg/kg, iv measured for 24 hrs by LC-MS/MS analysis. The format is ADME, organism-based, Canis lupus familiaris. The conditions noted are these: in vivo.
Series [9] can be described thus: Volume of distribution at steady state in Beagle dog at 2 mg/kg, iv measured for 24 hrs by LC-MS/MS analysis. Format: ADME, organism-based, Canis lupus familiaris. The conditions noted are these: in vivo, read-out: Vdss.
Series [10] is described as follows: Clearance in cynomolgus monkey at 2 mg/kg, iv measured for 24 hrs by LC-MS/MS analysis. Format: ADME, organism-based, Macaca fascicularis. The conditions noted are these: in vivo.
For series [11], the system named is Pfeiffer. In words: In vivo inhibition of PI3Kdelta in human Pfeiffer cells xenografted in SCID mouse assessed as reduction in AKT phosphorylation at Ser473 residue in tumor lysates at 1 mg/kg, po bid for 14 days measured at 4 hrs post last dose by Western blot analysis. The format is functional, organism-based. The conditions noted are these: Neoplasm, Lysate. For orientation: A xenograft is tissue or cells of one species grown in another, often human tumour cells in immunodeficient mice.

Series [12] can be described thus: Hepatotoxicity in rat measured on day 28. Format: toxicity. As to conditions: in vivo.
Series [13] is described as follows: Hepatotoxicity in Beagle dog measured on day 28. As to conditions: in vivo. Format: toxicity, Canis lupus familiaris.
The next series has as its target T1, Cytochrome P450 1A2 (Homo sapiens, UniProt P05177).
T1 sequence (P05177 whole entry): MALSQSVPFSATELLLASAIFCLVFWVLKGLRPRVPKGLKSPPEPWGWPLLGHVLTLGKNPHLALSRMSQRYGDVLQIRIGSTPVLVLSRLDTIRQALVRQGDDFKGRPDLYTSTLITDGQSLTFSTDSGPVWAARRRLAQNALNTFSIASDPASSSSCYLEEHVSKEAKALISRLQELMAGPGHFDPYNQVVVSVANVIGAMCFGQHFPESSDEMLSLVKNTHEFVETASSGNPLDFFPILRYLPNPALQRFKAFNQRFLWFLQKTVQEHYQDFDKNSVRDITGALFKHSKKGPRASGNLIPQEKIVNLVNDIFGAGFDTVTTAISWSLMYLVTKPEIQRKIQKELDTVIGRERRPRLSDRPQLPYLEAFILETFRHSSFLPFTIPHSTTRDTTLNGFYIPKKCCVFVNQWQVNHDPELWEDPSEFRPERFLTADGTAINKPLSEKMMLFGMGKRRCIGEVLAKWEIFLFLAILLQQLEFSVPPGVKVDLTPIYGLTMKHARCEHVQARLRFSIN
In words: Inhibition of CYP1A2 in human liver microsomes at 0.1 to 25 uM using 7-ethoxyresorufin as substrate by LC/MS analysis. Format: ADME.

The target in the next series is T2, Cytochrome P450 2C8 (Homo sapiens, UniProt P10632).
T2 sequence (P10632 whole entry): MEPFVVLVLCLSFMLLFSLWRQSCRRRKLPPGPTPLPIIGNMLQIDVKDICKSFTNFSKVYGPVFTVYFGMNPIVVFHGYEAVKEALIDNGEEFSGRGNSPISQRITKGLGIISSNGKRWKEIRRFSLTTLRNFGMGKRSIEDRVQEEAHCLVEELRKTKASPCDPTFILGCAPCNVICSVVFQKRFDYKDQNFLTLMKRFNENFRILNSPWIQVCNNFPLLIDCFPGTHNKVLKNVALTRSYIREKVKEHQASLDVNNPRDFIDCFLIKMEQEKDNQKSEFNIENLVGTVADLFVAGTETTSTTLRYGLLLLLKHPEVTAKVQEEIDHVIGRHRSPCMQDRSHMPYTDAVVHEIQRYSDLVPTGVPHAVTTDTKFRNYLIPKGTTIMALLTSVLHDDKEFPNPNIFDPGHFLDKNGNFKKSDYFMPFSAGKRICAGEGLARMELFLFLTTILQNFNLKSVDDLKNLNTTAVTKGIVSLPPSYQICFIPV
In words: Inhibition of CYP2C8 in human liver microsomes at 0.1 to 25 uM using amodiaquine as substrate by LC/MS analysis. The format is ADME. (Microsomes from liver hold many membrane-bound enzymes, among them those of drug oxidation.)

In a further series the target is Cytochrome P450 2C9 (Homo sapiens, UniProt P11712). In words: Inhibition of CYP2C9 in human liver microsomes at 0.1 to 25 uM using diclofenac as substrate by LC/MS analysis. The format is ADME.
The target of another series is Cytochrome P450 2C19 (Homo sapiens, UniProt P33261). In words: Inhibition of CYP2C19 in human liver microsomes at 0.1 to 25 uM using S-mephenytoin as substrate by LC/MS analysis. The format is ADME.
The target in the next series is Cytochrome P450 3A4 (Homo sapiens, UniProt P08684). In words: Inhibition of CYP3A4 in human liver microsomes at 0.1 to 25 uM using testosterone as substrate by LC/MS analysis. The format is ADME.
Sequence of Cytochrome P450 3A4 (P08684 whole entry): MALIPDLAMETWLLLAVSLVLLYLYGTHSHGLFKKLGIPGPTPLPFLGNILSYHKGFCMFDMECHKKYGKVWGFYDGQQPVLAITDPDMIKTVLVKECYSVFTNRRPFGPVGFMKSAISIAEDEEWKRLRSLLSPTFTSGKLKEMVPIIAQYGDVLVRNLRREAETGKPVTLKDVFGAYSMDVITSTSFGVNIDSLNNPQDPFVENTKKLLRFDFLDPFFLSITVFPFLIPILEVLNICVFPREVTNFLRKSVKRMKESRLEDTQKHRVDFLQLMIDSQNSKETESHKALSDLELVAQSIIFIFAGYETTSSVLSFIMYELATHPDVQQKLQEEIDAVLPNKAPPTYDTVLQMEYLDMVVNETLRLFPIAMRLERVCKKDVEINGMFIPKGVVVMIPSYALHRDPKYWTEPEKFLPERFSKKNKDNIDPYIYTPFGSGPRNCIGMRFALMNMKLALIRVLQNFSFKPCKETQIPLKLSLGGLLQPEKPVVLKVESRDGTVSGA

Sequence of Phosphatidylinositol 4,5-bisphosphate 3-kinase catalytic subunit alpha isoform (P42336 whole entry, canonical isoform): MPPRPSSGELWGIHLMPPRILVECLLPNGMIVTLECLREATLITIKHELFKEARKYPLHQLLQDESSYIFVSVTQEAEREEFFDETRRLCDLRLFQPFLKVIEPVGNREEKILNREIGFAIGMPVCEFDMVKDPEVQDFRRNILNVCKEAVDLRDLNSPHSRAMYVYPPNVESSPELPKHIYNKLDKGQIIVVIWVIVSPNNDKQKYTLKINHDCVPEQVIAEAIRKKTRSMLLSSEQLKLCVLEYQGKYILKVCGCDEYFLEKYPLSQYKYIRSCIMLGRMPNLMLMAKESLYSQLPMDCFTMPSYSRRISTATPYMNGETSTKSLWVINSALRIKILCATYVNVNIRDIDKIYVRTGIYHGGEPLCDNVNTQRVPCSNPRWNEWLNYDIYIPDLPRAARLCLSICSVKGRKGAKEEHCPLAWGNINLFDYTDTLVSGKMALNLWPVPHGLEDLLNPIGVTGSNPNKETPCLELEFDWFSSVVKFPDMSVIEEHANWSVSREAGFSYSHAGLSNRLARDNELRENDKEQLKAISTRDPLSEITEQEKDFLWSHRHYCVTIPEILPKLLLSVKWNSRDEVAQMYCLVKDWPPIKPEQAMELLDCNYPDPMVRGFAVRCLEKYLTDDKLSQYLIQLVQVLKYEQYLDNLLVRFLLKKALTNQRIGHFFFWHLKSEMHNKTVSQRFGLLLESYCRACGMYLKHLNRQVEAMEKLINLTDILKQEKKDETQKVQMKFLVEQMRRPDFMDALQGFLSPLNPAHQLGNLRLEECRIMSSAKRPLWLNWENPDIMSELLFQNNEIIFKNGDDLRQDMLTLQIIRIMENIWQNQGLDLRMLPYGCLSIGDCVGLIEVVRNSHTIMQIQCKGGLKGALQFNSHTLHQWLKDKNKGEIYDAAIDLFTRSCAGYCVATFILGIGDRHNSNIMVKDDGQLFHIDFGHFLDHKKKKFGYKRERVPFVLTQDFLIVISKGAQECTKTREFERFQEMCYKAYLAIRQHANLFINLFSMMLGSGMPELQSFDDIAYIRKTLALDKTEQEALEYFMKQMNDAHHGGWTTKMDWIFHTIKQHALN
Sequence of Cytochrome P450 2C19 (P33261 whole entry): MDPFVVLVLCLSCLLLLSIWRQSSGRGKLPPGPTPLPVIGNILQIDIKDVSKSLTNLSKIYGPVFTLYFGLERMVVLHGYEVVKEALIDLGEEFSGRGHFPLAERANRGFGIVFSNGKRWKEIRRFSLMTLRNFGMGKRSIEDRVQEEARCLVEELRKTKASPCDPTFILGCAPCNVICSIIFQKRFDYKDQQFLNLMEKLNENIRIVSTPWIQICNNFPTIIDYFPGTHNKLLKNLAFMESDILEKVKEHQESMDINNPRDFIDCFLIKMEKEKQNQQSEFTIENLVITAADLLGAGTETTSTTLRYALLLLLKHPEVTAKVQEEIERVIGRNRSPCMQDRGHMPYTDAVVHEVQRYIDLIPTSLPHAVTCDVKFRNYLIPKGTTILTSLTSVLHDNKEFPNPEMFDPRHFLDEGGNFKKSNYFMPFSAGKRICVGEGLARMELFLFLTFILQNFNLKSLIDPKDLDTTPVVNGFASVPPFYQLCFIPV
Sequence of Phosphatidylinositol 4,5-bisphosphate 3-kinase catalytic subunit gamma isoform (P48736 whole entry, canonical isoform): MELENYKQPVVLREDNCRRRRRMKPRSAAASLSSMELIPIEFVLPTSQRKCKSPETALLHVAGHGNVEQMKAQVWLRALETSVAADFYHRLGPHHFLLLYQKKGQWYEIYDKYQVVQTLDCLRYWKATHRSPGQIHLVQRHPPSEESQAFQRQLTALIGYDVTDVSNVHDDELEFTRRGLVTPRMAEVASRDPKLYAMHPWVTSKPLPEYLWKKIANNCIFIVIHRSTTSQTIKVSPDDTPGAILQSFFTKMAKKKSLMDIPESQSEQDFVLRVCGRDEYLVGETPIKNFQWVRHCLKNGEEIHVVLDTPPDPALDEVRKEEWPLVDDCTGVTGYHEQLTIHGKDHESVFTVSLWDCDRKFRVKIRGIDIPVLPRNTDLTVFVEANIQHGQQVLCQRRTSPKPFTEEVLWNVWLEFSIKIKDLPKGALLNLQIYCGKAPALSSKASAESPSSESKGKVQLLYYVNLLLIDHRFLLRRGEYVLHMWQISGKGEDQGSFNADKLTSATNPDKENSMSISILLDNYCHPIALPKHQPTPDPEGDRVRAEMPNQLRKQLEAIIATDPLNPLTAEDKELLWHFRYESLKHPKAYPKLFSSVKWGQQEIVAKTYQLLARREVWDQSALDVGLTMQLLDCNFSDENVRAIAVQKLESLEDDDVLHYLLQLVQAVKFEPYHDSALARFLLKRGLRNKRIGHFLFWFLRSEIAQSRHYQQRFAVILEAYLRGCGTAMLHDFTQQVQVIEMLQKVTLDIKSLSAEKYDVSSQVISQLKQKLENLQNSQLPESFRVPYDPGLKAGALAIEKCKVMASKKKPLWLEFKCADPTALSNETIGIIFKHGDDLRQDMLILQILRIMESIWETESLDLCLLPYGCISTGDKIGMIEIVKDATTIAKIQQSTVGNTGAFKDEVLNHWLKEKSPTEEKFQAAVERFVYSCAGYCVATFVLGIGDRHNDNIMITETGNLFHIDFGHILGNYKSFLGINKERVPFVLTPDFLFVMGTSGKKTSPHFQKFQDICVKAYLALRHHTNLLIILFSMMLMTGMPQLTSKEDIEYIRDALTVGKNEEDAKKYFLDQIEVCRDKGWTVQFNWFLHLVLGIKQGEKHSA
Sequence of Cytochrome P450 2C9 (P11712 whole entry): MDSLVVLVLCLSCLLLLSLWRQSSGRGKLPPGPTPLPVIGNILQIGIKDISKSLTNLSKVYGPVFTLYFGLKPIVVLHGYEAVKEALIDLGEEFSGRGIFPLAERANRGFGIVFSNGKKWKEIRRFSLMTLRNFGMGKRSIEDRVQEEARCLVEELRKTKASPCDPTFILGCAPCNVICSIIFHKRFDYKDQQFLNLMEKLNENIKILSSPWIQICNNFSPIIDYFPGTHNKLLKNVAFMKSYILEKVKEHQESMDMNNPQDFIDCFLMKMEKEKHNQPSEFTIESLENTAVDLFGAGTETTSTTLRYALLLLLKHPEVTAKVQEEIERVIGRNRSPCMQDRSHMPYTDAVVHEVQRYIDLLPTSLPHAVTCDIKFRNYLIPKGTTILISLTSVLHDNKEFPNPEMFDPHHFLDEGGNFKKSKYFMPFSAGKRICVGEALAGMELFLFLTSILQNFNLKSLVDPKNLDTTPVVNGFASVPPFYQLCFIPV
Sequence of Phosphatidylinositol 4,5-bisphosphate 3-kinase catalytic subunit beta isoform (P42338 whole entry, canonical isoform): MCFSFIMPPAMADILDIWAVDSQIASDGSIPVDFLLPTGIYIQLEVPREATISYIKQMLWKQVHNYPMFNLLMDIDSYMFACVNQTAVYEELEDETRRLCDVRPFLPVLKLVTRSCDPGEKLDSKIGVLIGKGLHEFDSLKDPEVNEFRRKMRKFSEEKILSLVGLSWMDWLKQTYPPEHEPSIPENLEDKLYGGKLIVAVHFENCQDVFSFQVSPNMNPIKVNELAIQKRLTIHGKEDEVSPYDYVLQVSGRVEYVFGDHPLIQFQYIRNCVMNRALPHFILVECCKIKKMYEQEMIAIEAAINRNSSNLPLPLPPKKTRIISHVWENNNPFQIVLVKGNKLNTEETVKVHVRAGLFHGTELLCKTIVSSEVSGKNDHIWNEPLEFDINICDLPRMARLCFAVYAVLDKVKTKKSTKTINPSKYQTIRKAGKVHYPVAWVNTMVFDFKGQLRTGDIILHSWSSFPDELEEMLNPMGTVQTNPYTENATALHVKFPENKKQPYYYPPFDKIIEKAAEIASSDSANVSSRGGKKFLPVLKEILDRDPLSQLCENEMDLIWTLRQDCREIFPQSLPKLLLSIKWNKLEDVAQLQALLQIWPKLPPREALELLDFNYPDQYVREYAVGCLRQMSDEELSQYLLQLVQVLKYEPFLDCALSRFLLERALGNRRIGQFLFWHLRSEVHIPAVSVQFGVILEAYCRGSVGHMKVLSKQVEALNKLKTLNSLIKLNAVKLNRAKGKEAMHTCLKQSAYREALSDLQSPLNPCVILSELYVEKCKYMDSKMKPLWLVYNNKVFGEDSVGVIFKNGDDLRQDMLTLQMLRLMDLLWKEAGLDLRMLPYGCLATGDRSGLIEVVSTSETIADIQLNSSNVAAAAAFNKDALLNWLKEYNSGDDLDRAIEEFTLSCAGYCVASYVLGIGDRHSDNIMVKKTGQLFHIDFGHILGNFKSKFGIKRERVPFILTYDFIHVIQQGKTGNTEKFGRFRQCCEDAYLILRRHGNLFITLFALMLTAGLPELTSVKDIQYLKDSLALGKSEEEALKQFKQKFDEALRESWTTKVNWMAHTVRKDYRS

In the case of `CCOc1c([C@H](C)n2nc(C)c3c(N)ncnc32)cc(Cl)c(F)c1[C@@H]1CNC(=O)C1` [PARSACLISIB], the IC50 with Pfeiffer [1] was 0.0042 µM; in series [2], > 20 µM; in series [3] it was > 20 µM; in series [4], > 10 µM. For the same compound, the CL in [5] is given as 26%; in series [8] it was 2%; in series [10], 5%. For the same compound, the Tmax in series [6] worked out at 18 min. Further, the bioavailability in series [7] was determined as 74%. The Vd in series [9] came out at 0.32 L/kg. Moreover, in the series with Pfeiffer [11], the inhibition entry was “Active”. Moreover, the Activity result in series [12] and in [13] was “Non-Toxic” throughout. Further, the “inhibition (INH)” value against Cytochrome P450 1A2, against Cytochrome P450 2C8, against Cytochrome P450 2C9, against Cytochrome P450 2C19 and against Cytochrome P450 3A4 was “Not Active” each time.
